Broadly, the IC50 is the midpoint of a concentration-inhibition curve.

Where a SMILES comes first, the peptide text is derived from it. Where no end group is shown, it is not given here. [ ]: non-standard residue; d: D form.

Here are results for ten compounds from US7671028B2, “Peptides that antagonize FPR class receptor mediated signaling” (POSTECH Foundation, priority 2004, dated 2010).

The first experiment deals with T1, FPRL1 (Homo sapiens, UniProt P25090).
T1 construct: expressed in transfected cells; host or cells: RBL-2H3 (rat basophilic leukaemia) cells
T1 sequence (P25090 1-351): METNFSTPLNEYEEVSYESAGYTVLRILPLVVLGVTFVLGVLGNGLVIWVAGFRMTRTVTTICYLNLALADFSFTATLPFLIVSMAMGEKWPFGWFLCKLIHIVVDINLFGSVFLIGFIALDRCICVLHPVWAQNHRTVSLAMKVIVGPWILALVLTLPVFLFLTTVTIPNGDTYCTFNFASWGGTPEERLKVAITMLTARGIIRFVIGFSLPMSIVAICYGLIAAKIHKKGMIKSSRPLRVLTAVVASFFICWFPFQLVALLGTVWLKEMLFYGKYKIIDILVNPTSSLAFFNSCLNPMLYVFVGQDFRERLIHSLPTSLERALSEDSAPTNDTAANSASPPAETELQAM
Put plainly: WKYMVm-induced [Ca2+]i increase in FPRL1-expressing RBL-2H3 cells (fura-2). It is filed as cell-based. The settings on record: inhibition of FPRL1 agonist-induced intracellular calcium increase; peptide added before agonist. The protocol: FIGS. 3A-3B show effects of WRW^4 (SEQ ID NO:4) on the WKYMVm (SEQ ID NO:3)-induced [Ca^2+]i rise in FPRL1 expressing RBL-2H3 cells. Fura-2-loaded FPRL1-expressing RBL-2H3 cells were stimulated with vehicle or WRW^4 (SEQ ID NO:4) (10 μM) and then with WKYMVm (SEQ ID NO:3) (10 nM); or FPRL1-expressing RBL-2H3 cells were sensitized with DNP-specific IgE, loaded with fura-2, and activated with the antigen DNP-HSA (1 μg/ml). The changes in 340 nm/380 nm were monitored. The results are representative of three independent experiments (A). Cells were stimulated with various concentrations of WRW^4 (SEQ ID NO:4) prior to adding 10 nM of WKYMVm (SEQ ID NO:3) or 1 μg/ml of DNP-HSA. Peak levels of [Ca^2+]i increase were monitored. The results shown are the means±SE of four independent experiments (B).
Intracellular calcium concentration ([Ca^2+]i) levels were determined by Grynkiewicz's method using fura-2/AM (25). Briefly, prepared cells were incubated with 3 μM fura-2/AM at 37° C. for 50 min in fresh serum free RPMI 1640 medium with continuous stirring. For DNP-HSA stimulation, RBL-2H3 cells were sensitized with 1 μg/ml mouse DNP-specific IgE overnight prior to fura-2 loading (26), and 2×10^6 cells were aliquoted for each assay in Ca^2+ free Locke's solution (154 mM NaCl, 5.6 mM KCl, 1.2 mM MgCl2, 5 mM HEPES, pH 7.3, 10 mM glucose, and 0.2 mM EGTA). The fluorescence changes at excitation wavelengths of 340 nm and 380 nm and a common emission wavelength of 500 nm were measured, and the calibrated fluorescence ratio was converted to [Ca^2+]i.
The stimulation of FPRL1 by WKYMVm (SEQ ID NO:3) elicited a [Ca^2+]i increase in FPRL1-expressing RBL-2H3 cells (FIG. 3A). To investigate whether the inventive peptides inhibited WKYMVm (SEQ ID NO:3)-induced [Ca^2+]i increase, we stimulated fura-2 loaded FPRL1-expressing RBL-2H3 cells with various concentrations of WRW^4 (SEQ ID NO:4), and subsequently stimulated with effective concentration of WKYMVm (SEQ ID NO:3). […] To confirm specific inhibition by WRW^4 (SEQ ID NO:4) on FPRL1-induced signaling, we examined the effect of WRW^4 (SEQ ID NO:4) on another extracellular signal-induced [Ca^2+]i increase. FcεRI cross-linking has been reported to induce a [Ca^2+]i increase in RBL-2H3 cells (26). Stimulation of FPRL1-expressing RBL-2H3 cells (sensitized with 1 μg/ml mouse DNP-specific IgE) with 1 μg/ml DNP-HSA caused a dramatic increase in [Ca^2+]i (FIG. 3A).
Methods and principles of assaying for the effects of a set of diverse peptides on the intracellular concentration of calcium when the peptides are contacted with the cells bearing FPRL1 before the FPRL1 agonist is added is described in Example 1.5 above, and further details of initial experimentation using the peptides is described in Example 2.2.
For `N=C(N)NCCC[C@H](NC(=O)[C@@H](N)Cc1c[nH]c2ccccc12)C(=O)N[C@@H](Cc1c[nH]c2ccccc12)C(N)=O` [SEQ ID NO:7] (H-Trp-Arg-Trp-NH2), the IC50 was more than 10 µM.
In the case of `NC(=O)[C@@H](Cc1c[nH]c2ccccc12)NC(=O)[C@H](Cc1c[nH]c2ccccc12)NC(=O)[C@H](Cc1c[nH]c2ccccc12)NC(=O)[C@H](Cc1c[nH]c2ccccc12)NC(=O)[C@H](Cc1c[nH]c2ccccc12)NC(=O)[C@@H](N)Cc1c[nH]c2ccccc12` [SEQ ID NO:32] (H-WWWWW[dW]-NH2), the IC50 was more than 10 µM.
As for `N=C(N)NCCC[C@H](NC(=O)[C@@H](N)Cc1c[nH]c2ccccc12)C(=O)N[C@@H](Cc1c[nH]c2ccccc12)C(=O)N[C@@H](Cc1c[nH]c2ccccc12)C(N)=O` [SEQ ID NO:34] (H-WRWW-NH2), the IC50 is more than 10 µM.
Regarding `NC(=O)[C@@H](Cc1c[nH]c2ccccc12)NC(=O)[C@H](Cc1c[nH]c2ccccc12)NC(=O)[C@H](Cc1c[nH]c2ccccc12)NC(=O)[C@@H](N)Cc1c[nH]c2ccccc12` [SEQ ID NO:35] (H-WWW[dW]-NH2), the IC50 is more than 10 µM.
For the compound `N=C(N)NCCC[C@H](N)C(=O)N[C@@H](Cc1c[nH]c2ccccc12)C(=O)N[C@@H](Cc1c[nH]c2ccccc12)C(=O)N[C@H](Cc1c[nH]c2ccccc12)C(N)=O` [SEQ ID NO:36] (H-RWW[dW]-NH2), the IC50 was more than 10 µM.
Still for that read-out and setting: the figure for `CSCC[C@H](NC(=O)[C@H](Cc1c[nH]c2ccccc12)NC(=O)[C@H](Cc1c[nH]c2ccccc12)NC(=O)[C@H](CCCNC(=N)N)NC(=O)[C@H](Cc1c[nH]c2ccccc12)NC(=O)[C@H](N)Cc1c[nH]c2ccccc12)C(N)=O` [wWRWWM] (H-[dW]WRWWM-NH2) is 0.0082 ± 0.0006 µM; for “H-WRWWWW-NH2 [SEQ ID NO:4, Trp-Arg-Trp-Trp-Trp-Trp-CONH2]” it is 1 ± 0.21 µM.
Still for that read-out and setting: the figure for WRRWWW-NH2 [SEQ ID NO:33] is more than 10 µM; for WWWWWW-NH2 [SEQ ID NO:31] it is more than 10 µM.

A further experiment concerns human neutrophils. Put plainly: Superoxide generation in human neutrophils (cytochrome c reduction). It is filed as cell-based. The settings on record: agonist alone, concentration-dependent. As for the experimental part:
FIGS. 7A-7D show effects of WRW^4 (SEQ ID NO:4) on the Aβ42-induced superoxide generation and chemotaxis in human neutrophils. […] Cytochrome c reduction was monitored, as described in EXAMPLES. The results shown are representative of four independent experiments (A, B). Chemotaxis assays were performed using a modified Boyden chamber assay, as described in EXAMPLES. […] The data are presented as mean±SE of three independent experiments each performed in duplicate (C, D).
Superoxide anion generation was determined by measuring cytochrome c reduction using a microtiter 96 well plate ELISA reader (Bio-Tekinstruments, EL312e, Winooski, Vt.) as previously described (23). Human neutrophils (1×10^6 cells/100 μl of RPMI 1640 medium per well of a 96-well plate) were preincubated with 50 μM cytochrome c at 37° C. for 1 min and then incubated with the indicated concentrations of peptides. Superoxide generation was determined for the change in light absorption at 550 nm over 5 minutes at 1 min intervals.
Superoxide generation is one of the important functions of phagocytic leukocytes like neutrophils (28).
On to “Aβ42: amyloid β42 peptide, cleavage fragment of amyloid precursor protein, endogenous ligand for FPRL1”, for which the “peptide concentration of maximal superoxide generating effect” value turned out to be 40 µM.
